The nature of data set [1]: Metabolic stability test on rat liver S9. Type of data set: in vitro ADME. The conditions noted are these: rat liver S9 with NADPH, 1 μM test compound, 37° C.; residual rate after reaction, LC/MS. Here is the method:
The reaction using liver S9 of rat was conducted on a 96-well plate by using a screening robot by Tecan Company. S9 solution was prepared by adding 250 mM Kpi (pH 7.4) 20 ml and deionized water 20 ml to 10 ml of liver S9 of rat, a Cofactor solution was prepared by dissolving NADPH 220 mg in deionized water 40.5 ml (Final 6 mM), and IS (Internal Standard) solution was prepared by adding IS solution (1 mM DMSO solution) 300 μl to acetonitrile 30 ml (100 times dilution). The test compound (1 μM DMSO solution) was dissolved in an incubator at 37° C. After each 35 μL was poured in a 96-well plate (24 samples/plate), plates (sample plates, 96-well plates for dilution, each Deep well plates for the reaction and the recovery, plates for extraction of a solid phase) and reagents (S9 solution, Cofactor solution, IS (Internal Standard) solution, Stop solution, acetonitrile for elution) were set to the specified position in the booth of the robot, and the reaction started (the concentration of the test compounds was 1 μM). Incubation was conducted under shaking at 37° C., the solid phase was extracted (at the same time, the internal standard for analysis was added). To the recovered samples 200 μL/well was added 50 μL of acetonitrile per each well, and to 2 plates of FALCON Deep well were poured 100 μL/well of the solution per well. By subjecting to the LC/MS analysis, the chromatography of the test compound and the internal standard were described and the peak area was calculated. And then, the stability (residual rate after reaction) was calculated.

For the next data set, the system named is spleen cells. As to the kind of experiment: cells. The conditions noted are these: 24 h, read-out: Minimum effective concentration (interferon inducing activity), CD(SD)IGS rat spleen cells, 24 hours incubation; interferon in supernatant by L929/vesicular stomatitis virus bioassay. Type of data set: cell-based.
Data set [2] can be described thus: Metabolic stability test using human plasma. It counts as in vitro ADME. The note with it: 1 μM test compound, 37° C. for 15 minutes, residual amount per pre-metabolization concentration as 100%. The protocol:
Plasma was prepared from fresh human blood and the test compound (containing 1% DMSO) of the final concentration of 1 μM was added thereto.
After a metabolic reaction by plasma esterase was conducted at 37° C. for 15 minutes, the test compound was extracted with ethyl acetate, and quantitatively analyzed by reverse phase HPLC. The metabolic stability of the test compound was shown by the residual amount (%) per the concentration of pre-metabolization as 100%.

Structures are written as SMILES. Where only a bound is given, the exact number is not on record here.

In data set [1], `CCCCOc1nc(N)c2nc(O)n(Cc3ccc(CC(=O)OC)s3)c2n1` [Example 16, 2-Butoxy-8-hydroxy-9-{(5-methoxycarbonylmethyl-2-thienyl)methyl}adenine] came in with a Residual rate of 0%.

For the compound `CCCCOc1nc(N)c2[nH]c(=O)n(Cc3cc(CC(=O)OC)ccc3OC)c2n1` [Example 20, 2-Butoxy-8-hydroxy-9-[(2-methoxy-5-methoxycarbonylmethyl)benzyl]adenine], the Residual rate in data set [1] stood at 0%.

Compound `CCCCOc1nc(N)c2[nH]c(=O)n(Cc3ccc(OC)c(CC(=O)OC)c3)c2n1` [Example 22, 2-Butoxy-8-hydroxy-9-[(4-methoxy-3-methoxycarbonylmethyl)benzyl]adenine] yielded a Residual rate in data set [1] of 2%.

Take `CCCCOc1nc(N)c2nc(O)n(CCCc3cccc(CC(=O)OC)c3)c2n1` [Example 10, 2-Butoxy-8-hydroxy-9-[3-(3-methoxycarbonylmethylphenyl)propyl]adenine]: the minimal effective concentration with spleen cells is 0.01 µM. Also, the figures for the Residual rate in data set [2] and in data set [1] were <1% and 1%, respectively.

As to `COC(=O)Cc1cccc(Cn2c(O)nc3c(N)nc(OCCO)nc32)c1` [Example 5, 8-Hydroxy-2-(2-hydroxyethoxy)-9-(3-methoxycarbonylmethylbenzyl)adenine], the minimal effective concentration in the data set with spleen cells worked out at 0.1 µM. The compound further yielded a Residual rate in data set [2] of 5.8%.

Take `COC(=O)Cc1cccc(Cn2c(O)nc3c(N)nc(OCC4CCCCC4)nc32)c1` [Example 13, 2-Cyclohexylmethoxy-8-hydroxy-9-(3-methoxycarbonylmethylbenzyl)adenine]: the Residual rate in data set [1] was 11%.

For `COC(=O)Cc1cccc(Cn2c(O)nc3c(N)nc(OCCCO)nc32)c1` [Example 4, 8-Hydroxy-2-(3-hydroxypropoxy)-9-(3-methoxycarbonylmethylbenzyl)adenine], the minimal effective concentration in the data set with spleen cells turned out to be 0.03 µM. Besides, the Residual rate in data set [2] came out at 3.2%; in data set [1], 8%.

Turning to `Nc1nc(OCCCO)nc2c1nc(O)n2Cc1cccc(CC(=O)O)c1` [compound 4, 9-(3-Carboxymethylbenzyl)-8-hydroxy-2-(3-hydroxypropoxy)adenine, reference compound], the minimal effective concentration in the data set on spleen cells is > 1 µM.

Regarding `Nc1nc(OCCO)nc2c1nc(O)n2Cc1cccc(CC(=O)O)c1` [compound 5, 9-(3-Carboxymethylbenzyl)-8-hydroxy-2-(2-hydroxyethoxy)adenine, reference compound], the minimal effective concentration in the data set on spleen cells was > 1 µM.

`CCOCCOc1nc(N)c2nc(O)n(Cc3cccc(CC(=O)OC)c3)c2n1` [Example 12, 2-(2-Ethoxyethoxy)-8-hydroxy-9-(3-methoxycarbonylmethylbenzyl)adenine] had a Residual rate in data set [1] of 0%.

As to `CCCCOc1nc(N)c2[nH]c(=O)n(Cc3ccc(F)c(CC(=O)OC)c3)c2n1` [Example 21, 2-Butoxy-9-[(4-fluoro-3-methoxycarbonylmethyl)benzyl]-8-hydroxyadenine], the Residual rate in data set [1] was 1%.

Consider `COC(=O)Cc1cccc(Cn2c(O)nc3c(N)nc(SCCCCO)nc32)c1` [Example 2, 8-Hydroxy-2-(4-hydroxybutylthio)-9-(3-methoxycarbonylmethylbenzyl)adenine], for which the minimal effective concentration in the data set with spleen cells was found to be 0.01 µM. For the same compound, the Residual rate in data set [2] is reported as <1%.

For `COC(=O)CCc1nc(N)c2nc(O)n(Cc3cccc(CC(=O)OC)c3)c2n1` [Example 15, 8-Hydroxy-2-(2-methoxycarbonylethyl)-9-(3-methoxycarbonylmethylbenzyl)adenine], the Residual rate in data set [1] worked out at 0%.

The compound `CCCCOc1nc(N)c2nc(O)n(Cc3cccc(CC(=O)OC)n3)c2n1` [Example 18, 2-Butoxy-8-hydroxy-9-{(6-methoxycarbonylmethyl-2-pyridyl)methyl}adenine] had a Residual rate in data set [1] of 0%.

Turning to `CCCCOc1nc(N)c2nc(O)n(CCc3cccc(CC(=O)O)c3)c2n1` [compound 9, 2-Butoxy-9-[2-(3-carboxymethylphenyl)ethyl]-8-hydroxyadenine, reference compound], in the data set on spleen cells, the minimal effective concentration was found to be 0.3 µM.

`Nc1nc(SCCCO)nc2c1nc(O)n2Cc1cccc(CC(=O)O)c1` [Comparative example 1, 9-(3-Carboxymethylbenzyl)-8-hydroxy-2-(3-hydroxypropylthio)adenine, reference compound]: the minimal effective concentration with spleen cells is > 1 µM.

With `COC(=O)Cc1cccc(Cn2c(O)nc3c(N)nc(SCCCO)nc32)c1` [Example 1, 8-Hydroxy-2-(3-hydroxypropylthio)-9-(3-methoxycarbonylmethylbenzyl)adenine], the minimal effective concentration in the data set with spleen cells worked out at 0.01 µM. Further, the Residual rate in data set [2] is listed as <1%.

With `CCCCOc1nc(N)c2nc(O)n(Cc3cc(CC(=O)OC)ccn3)c2n1` [Example 19, 2-Butoxy-8-hydroxy-9-{(4-methoxycarbonylmethyl-2-pyridyl)methyl}adenine], the Residual rate in data set [1] is 0%.

For `CCCCOc1nc(N)c2nc(O)n(CCc3cccc(CC(=O)OC)c3)c2n1` [Example 9, 2-Butoxy-8-hydroxy-9-[2-(3-methoxycarbonylmethylphenyl)ethyl]adenine], the minimal effective concentration in the data set on spleen cells is 0.03 µM. Further, the Residual rate in data set [2] worked out at 7.9%; in data set [1] it was 0%.

Compound `COC(=O)Cc1cccc(Cn2c(O)nc3c(N)nc(OCC(O)CO)nc32)c1` (stereo not shown) [Example 11, 2-(2,3-Dihydroxy-1-propoxy)-8-hydroxy-9-(3-methoxycarbonylmethylbenzyl)adenine] gave a Residual rate in data set [2] of 20.9%.

For `Nc1nc(SCCCCO)nc2c1nc(O)n2Cc1cccc(CC(=O)O)c1` [Comparative example 2, 9-(3-Carboxymethylbenzyl)-8-hydroxy-2-(4-hydroxybutylthio)adenine, reference compound], the minimal effective concentration with spleen cells was 1 µM.

Consider `CCCCOc1nc(N)c2nc(O)n(CCCc3cccc(CC(=O)O)c3)c2n1` [compound 10, 2-Butoxy-9-[3-(3-carboxymethylphenyl)propyl]-8-hydroxyadenine, reference compound], for which, in the data set with spleen cells, the minimal effective concentration was 0.1 µM.

The record behind these values is patent publication US20070225303A1, “8-Oxoadenine Compound” (priority 2004, published 2007).
